In patent publication US11395854B2, “Trialkyl cationic lipids and methods of use thereof” (ARBUTUS BIOPHARMA CORPORATION, priority 2012, dated 2022):

Assays:
[1] = tested on: ApoB expression in the livers (Liver ApoB:GAPD mRNA ratio); experiment: murine ApoB siRNA activity model: ApoB knockdown in liver by nucleic acid-lipid particles containing the cationic lipid; format: in vivo, female BALB/c mice
Method: This Example compares the effectiveness, in a murine ApoB siRNA activity model, of short chain trialkyl lipids of the present invention with lipids having longer alkyl chains but which are otherwise structurally identical to the short chain trialkyl lipids.
Nucleic acid-lipid particle formulations containing cationic lipids were assessed for their ability to knockdown ApoB expression in the livers of 7 to 9 week old female BALB/c mice. Mice were dosed intravenously (tail vein) in groups of three at either 0.02, 0.03 or 0.05 mg/kg. ApoB knockdown (normalized to the housekeeping gene GAPDH) was measured relative to PBS as a negative control. Each experiment was terminated at 48 hours after dosing.
For comparison to a positive control, the performance of short chain trialkyl lipids of the present invention was compared to a potent cationic lipid, referred to as C2K, that is known to facilitate nucleic acid delivery, in vivo, in nucleic acid-lipid particles (Nature Biotech., Vol 28(2),172 (2010)).

[2] = tested on: ApoB (normalized to the housekeeping gene GAPDH), liver; experiment: murine ApoB model with a different, less potent siRNA sequence; liver ApoB silencing via Quantigene Assay; format: in vivo, Mice; conditions: 0.04 mg/kg siRNA; for ApoB gene silencing relative to PBS control (Liver ApoB:GAPD mRNA ratio): intravenous (tail vein), 48 h after dosing, different, less potent siRNA sequence
Method: In another experiment, two more lipids of the present invention (Compounds 62 and 71) were formulated into lipid nanoparticles with siRNA to target ApoB. Mice were dosed intravenously (tail vein) and sacrificed 48 h after dosing. Livers were harvested and homogenized, and the level of ApoB silencing (normalized to the housekeeping gene GAPDH) then measured via Quantigene Assay. The results are shown in Table 6 and are expressed as a percentage, relative to a PBS-treated negative control group. […] Inter-experiment comparisons are therefore not possible: […]

[3] = injected dose of 0.03 mg/kg, separate experiment

Row | SMILES | activity compared to C2K ([1]; injected dose of 0.02 mg/kg) | activity compared to C2K [1, 3] | other results
1 | CCCCC/C=C\CCCC(CCC/C=C\CCCCCC)C(CC/C=C\CCCCC)OC(=O)NCCCN(C)C (centres unmarked) [Compound 27, (6Z,15Z)-11-((Z)-dec-4-en-1-yl)docosa-6,15-dien-10-yl (3-(dimethylamino)propyl)carbamate] | greater activity than C2K | – | –
2 | CCCCC/C=C\CCCC(CCC/C=C\CCCCC)C(CC/C=C\CCCCC)OC(=O)CCCCN(C)C (centres unmarked) [Compound 19, (6Z,15Z)-11-((Z)-dec-4-enyl)henicosa-6,15-dien-10-yl 5-(dimethylamino)pentanoate] | greater activity than C2K | greater activity than C2K | –
3 | CCCCC/C=C\CCCC(CCC/C=C\CCCCC)C(CCC/C=C\CCCCC)OC(=O)NCCN(C)C (centres unmarked) [Compound 25, (6Z,16Z)-12-((Z)-dec-4-enyl)docosa-6,16-dien-11-yl 2-(dimethylamino)ethylcarbamate] | – | greater activity than C2K | –
4 | CCCCC/C=C\CCCC(CCC/C=C\CCCCC)C(CC/C=C\CCCCC)OC(=O)CCCN(C)C (centres unmarked) [Compound 22, (6Z,15Z)-11-((Z)-dec-4-enyl)henicosa-6,15-dien-10-yl 4-(dimethylamino)butanoate] | greater activity than C2K | – | –
5 | CCCCC/C=C\CCC(CC/C=C\CCCCC)C(CC/C=C\CCCCC)OC(=O)CCCN(C)C (centres unmarked) [Compound 40] | greater activity than C2K | – | –
6 | CCCCC/C=C\C/C=C\CCCCCCCCC(CCCCCCCC/C=C\C/C=C\CCCCC)OCCCN(C)C [DLin-MP-DMA, reference compound] | – | – | effectiveness compared to C2K ([1]; three separate experiments, 0.03 or 0.05 mg/kg): more effective than C2K; ApoB gene silencing relative to PBS control (Liver ApoB:GAPD mRNA ratio) [2]: −32%
7 | CCCCC/C=C\CCCC(CCC/C=C\CCCCC)C(CCC/C=C\CCCCC)OC(=O)CCCCCN(C)C (centres unmarked) [Compound 11, (6Z,16Z)-12-((Z)-dec-4-enyl)docosa-6,16-dien-11-yl 6-(dimethylamino)hexanoate] | – | greater activity than C2K | –
8 | CCCCC/C=C\CCCC(CCC/C=C\CCCCC)C(CCC/C=C\CCCCC)OC(=O)N(C)CCCN(C)C (centres unmarked) [Compound 23, (6Z,16Z)-12-((Z)-dec-4-enyl)docosa-6,16-dien-11-yl 3-(dimethylamino)propyl(methyl)carbamate] | – | greater activity than C2K | –
9 | CCCCC/C=C\CCCC(CCC/C=C\CCCCC)C(CCC/C=C\CCCCC)OC(=O)CCCCN(C)C (centres unmarked) [Compound 13, (6Z,16Z)-12-((Z)-dec-4-enyl)docosa-6,16-dien-11-yl 5-(dimethylamino)pentanoate] | greater activity than C2K | greater activity than C2K | –
10 | CCCCC/C=C\CCCC(OC(=O)CCCCN(C)C)C(CCCCCCCCCC)CCCCCCCCCC (centres unmarked) [Compound 50, (Z)-12-decyldocos-6-en-11-yl 5-(dimethylamino)pentanoate] | greater activity than C2K | – | –
11 | CCCCC/C=C\CCCC(CCC/C=C\CCCCC)C(CCC/C=C\CCCCC)OC(=O)CCCN(C)C (centres unmarked) [Compound 9] | greater activity than C2K | – | –
12 | CCCCC/C=C\CCCC(CCC/C=C\CCCCC)C(CCC/C=C\CCCCC)OCCCCN(C)C (centres unmarked) [Compound 62, 4-(((6Z,16Z)-12-((Z)-dec-4-en-1-yl)docosa-6,16-dien-11-yl)oxy)-N,N-dimethylbutan-1-amine] | – | – | activity compared to the DLin-MP-DMA control [2]: significantly more active; ApoB gene silencing relative to PBS control (Liver ApoB:GAPD mRNA ratio) [2]: −56%
13 | CC(C)CCCC(C)CCC(CCC(C)CCCC(C)C)C(CCC(C)CCCC(C)C)OC(=O)CCCCN(C)C (centres unmarked) [Compound 71, 10-(3,7-dimethyloctyl)-2,6,13,17-tetramethyloctadecan-9-yl 5-(dimethylamino)pentanoate] | – | – | ApoB gene silencing relative to PBS control (Liver ApoB:GAPD mRNA ratio) [2]: −29%
